Results on 8 molecules are retold here after ChEMBL document CHEMBL1201862, “PubChem BioAssay data set” (2004).

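Briefly, cells in 96-well plates were exposed to five compound concentrations for 48 h, and endpoints were estimated by linear interpolation. The concentration for 50% growth inhibition is given as GI50.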 Calls of active or inactive are those of the source. Cut-off read from the data, not from the text of the source: active = GI50 up to about 1.1 µM and inactive = higher. Bounds are passed on as bounds.

Test systems include M14; OVCAR-5; RXF 393; CAKI-1; T47D; MCF7; OVCAR-3; SF-295; IGROV-1; NCI-H226; 786-0; SNB-75; NCI-H522; SF-539; UACC-257; SW-620; SK-OV-3; U-251; SNB-19; CCRF-CEM.
What all share (experiment): NCI tumour cell line growth inhibition, 48 h

Consider `Nc1ccc(C(=O)NN2C(=O)[C@H](Cl)C2c2ccc(Cl)cc2)cc1` (some centres undefined), for which the GI50 with M14 was 1.58 µM (inactive); in the assay with OVCAR-5 it was 4.2 µM (inactive); in the assay with RXF 393 it was 2.72 µM (inactive); in the assay on CAKI-1 it was 1.4 µM (inactive); in the assay with T47D, 1.85 µM (inactive); with MCF7, 1.17 µM (inactive). In addition, the GI50 is 0.57 µM (active) in the assay on OVCAR-3; 4.55 µM (inactive) with SF-295; 1.65 µM (inactive) in the assay with IGROV-1; 0.714 µM (active) with NCI-H226; 1.32 µM (inactive) with 786-0; 0.223 µM (active) with SNB-75. Further, the GI50 is 2.03 µM (inactive) in the assay with NCI-H522; 1.79 µM (inactive) in the assay with SF-539; 1.74 µM (inactive) in the assay with UACC-257; 2.11 µM (inactive) in the assay on SW-620; 1.88 µM (inactive) in the assay on SK-OV-3; 1.22 µM (inactive) in the assay with U-251. In the assay on SNB-19, the GI50 is 1.67 µM (inactive).

As to `O=C1CSC(c2c(O)ccc3ccccc23)N1n1c(S)nnc(/C=C/c2c(O)ccc3ccccc23)c1=O` (centres undefined), the GI50 was 0.935 µM (active) with M14; 0.244 µM (active) in the assay with CCRF-CEM; 1.99 µM (inactive) with OVCAR-5; 1.45 µM (inactive) in the assay on RXF 393; 0.489 µM (active) in the assay on CAKI-1; 0.59 µM (active) with T47D. Also, the GI50 is 0.451 µM (active) in the assay on MCF7; 0.387 µM (active) with OVCAR-3; 6.71 µM (inactive) in the assay on SF-295; 2.28 µM (inactive) with IGROV-1; 0.662 µM (active) with 786-0; 1.5 µM (inactive) in the assay on SNB-75. For the same molecule, the GI50 with NCI-H522 is 1.14 µM (inactive); with UACC-257 it was 1.43 µM (inactive); in the assay on SW-620 it was 0.753 µM (active); in the assay with U-251, 1.33 µM (inactive); in the assay with SNB-19, 1.69 µM (inactive).

`CC(=N/N=C/c1ccccn1)/C(C)=N/N=C(C)/C(C)=N/N=C(C)/C(C)=N/N=C(C)/C(C)=N\N=C\c1ccccn1`: the GI50 in the assay on M14, in the assay on OVCAR-5, with RXF 393, in the assay on CAKI-1, in the assay with T47D and with MCF7 was > 100 µM (inactive) in each case. The GI50 with OVCAR-3, in the assay with SF-295, in the assay on IGROV-1, in the assay on NCI-H226, in the assay on 786-0 and in the assay on SNB-75 was > 100 µM (inactive) each time. Besides, the GI50 in the assay with NCI-H522, in the assay with SF-539, in the assay on UACC-257, in the assay with SW-620, with SK-OV-3 and in the assay on U-251 was > 100 µM (inactive) throughout. Further, the GI50 in the assay on SNB-19 is > 100 µM (inactive).

For `CC(=O)C(O)N1C(=O)C=CC1=O` (centres undefined), the GI50 in the assay with M14 is 4.23 µM (inactive); in the assay on OVCAR-5, 17.1 µM (inactive); in the assay with RXF 393, 2.13 µM (inactive); with CAKI-1, 1.79 µM (inactive); with T47D it was > 25 µM (inactive); with MCF7, > 25 µM (inactive). For the same molecule, the GI50 in the assay on OVCAR-3 is 17.6 µM (inactive); in the assay with SF-295 it was 18.3 µM (inactive); in the assay with IGROV-1 it was 21.1 µM (inactive); in the assay on NCI-H226, 12.9 µM (inactive); in the assay on 786-0 it was 2.33 µM (inactive); in the assay on SNB-75 it was 6.24 µM (inactive). Also, the GI50 in the assay on NCI-H522 is 1 µM (active); in the assay on SF-539, 5.41 µM (inactive); with UACC-257, 6 µM (inactive); with SW-620, 1.71 µM (inactive); with SK-OV-3 it was 25.2 µM (inactive); with U-251 it was 17.4 µM (inactive). Moreover, the GI50 in the assay on SNB-19 is 17.6 µM (inactive).

On to `O=C(/C=C1\Sc2ccccc2N=C1CC(=O)c1ccccc1)c1ccccc1`, for which the GI50 in the assay on M14 was 6.14 µM (inactive); in the assay on CCRF-CEM, 2.36 µM (inactive); in the assay with OVCAR-5, 12.8 µM (inactive); in the assay with RXF 393, 26.5 µM (inactive); in the assay with CAKI-1, 4.12 µM (inactive); in the assay on T47D, 6.98 µM (inactive). Besides, the GI50 in the assay on MCF7 is 4.19 µM (inactive); with OVCAR-3, 10.7 µM (inactive); in the assay on SF-295, 3.64 µM (inactive); with IGROV-1 it was 3.61 µM (inactive); in the assay with NCI-H226 it was 7.1 µM (inactive); with 786-0, 3.51 µM (inactive). Also, the GI50 in the assay on NCI-H522 is 15.8 µM (inactive); in the assay with SF-539 it was 13.2 µM (inactive); in the assay with UACC-257 it was 97.3 µM (inactive); in the assay on SW-620 it was 3.97 µM (inactive); with SK-OV-3 it was 9.82 µM (inactive); in the assay on U-251 it was 2.01 µM (inactive). The GI50 with SNB-19 is 69.7 µM (inactive).

With `O=C(N/N=C/c1ccc2c(c1)OCO2)Nc1ccccc1Cl`, the GI50 was 0.671 µM (active) in the assay on M14; 1.13 µM (inactive) in the assay on CCRF-CEM; 8 µM (inactive) in the assay on OVCAR-5; 1.57 µM (inactive) with RXF 393; 4.18 µM (inactive) in the assay on CAKI-1; 2.08 µM (inactive) with T47D. Besides, the GI50 in the assay on MCF7 was 0.469 µM (active); with OVCAR-3, 0.391 µM (active); in the assay on SF-295, 0.47 µM (active); in the assay on IGROV-1, 0.622 µM (active); in the assay on NCI-H226, 4.19 µM (inactive); with 786-0, 3.69 µM (inactive). Moreover, the GI50 in the assay on NCI-H522 was 0.233 µM (active); with SF-539 it was 0.918 µM (active); with UACC-257, 2.23 µM (inactive); in the assay on SW-620 it was 0.708 µM (active); with SK-OV-3, 2.77 µM (inactive); in the assay on U-251, 2.68 µM (inactive). Moreover, the GI50 in the assay with SNB-19 was 3.7 µM (inactive).

For the molecule `Cc1cc(S(=O)(=O)NC2=NCCCN2)c(S)cc1Cl`, the GI50 with M14 was 29.6 µM (inactive); in the assay on OVCAR-5 it was 33 µM (inactive); with RXF 393, 66.2 µM (inactive); in the assay with CAKI-1 it was 16.8 µM (inactive); in the assay on T47D, 25.2 µM (inactive); in the assay on MCF7, > 10 µM (inactive). In addition, the GI50 with OVCAR-3 is 31.6 µM (inactive); with IGROV-1, 27.5 µM (inactive); in the assay on NCI-H226 it was 22.3 µM (inactive); in the assay with 786-0, 20.8 µM (inactive); in the assay with SNB-75 it was 42.3 µM (inactive); in the assay with NCI-H522, 22 µM (inactive). The GI50 in the assay with SF-539 is 57.8 µM (inactive); with UACC-257, 37.5 µM (inactive); with SW-620, 19.9 µM (inactive); in the assay with SK-OV-3, 36.6 µM (inactive); in the assay with U-251, 34.4 µM (inactive); in the assay on SNB-19 it was 40.6 µM (inactive).

Take `C=C1C(=O)O[C@@H]2C[C@@H](C)[C@@H]3C=CC(=O)[C@@]3(C)[C@@H](O)[C@H]12` [HELENALIN]: the GI50 in the assay with M14 was 1.98 µM (inactive); in the assay with CCRF-CEM, 0.313 µM (active); in the assay with OVCAR-5, 1.71 µM (inactive); with RXF 393 it was 0.466 µM (active); with CAKI-1, 0.377 µM (active); in the assay with T47D, 2.95 µM (inactive). Also, the GI50 with MCF7 was 0.78 µM (active); in the assay with OVCAR-3, 1.52 µM (inactive); with SF-295, 2.77 µM (inactive); in the assay on IGROV-1, 2.2 µM (inactive); with NCI-H226, 1.63 µM (inactive); with 786-0, 1.25 µM (inactive). Moreover, the GI50 in the assay on SNB-75 was 0.0352 µM (active); in the assay on NCI-H522, 0.242 µM (active); with SF-539 it was 1.99 µM (inactive); in the assay with UACC-257, 1.59 µM (inactive); in the assay on SW-620, 0.719 µM (active); in the assay on U-251, 0.769 µM (active). For the same molecule, the GI50 in the assay on SNB-19 was 2.58 µM (inactive).
